Data set [1] concerns colon cancer 26-L5 cell invasion. Nature of the data set: recombinant basement membrane invasion experiment (Transwell/Matrigel). It is filed as cell-based. The note with it: for IC50 / IC50 (μg/mL): inhibition of colon cancer 26-L5 cell invasion. The protocol:
Invasion and metastasis are basic characteristics of malignant tumors. During the tumor metastasis process, the tumor cell invasion into a basement membrane is an important link. A conventional recombinant basement membrane invasion experiment is adopted, a natural product Brartemicin is taken as positive control, and the inhibition action of trehalose derivatives against colon cancer 26-L5 cell invasion activity is determined.
Polycarbonate membrane 8 μm (Nucleopore, Pleasanton, Calif., USA); Transwell cell culture chamber (Costar 3422, Cambridge, Mass., USA); fibronectin (FN; Collaborative Research Inc., Bedford, Mass., USA); Matrigel (Collaborative Research Inc., Bedford, Mass., USA); RPMI1640 culture medium containing 1% of fetal calf serum (FCS) (Collaborative Research Inc., Bedford, Mass., USA); and hematoxylin-eosin (HE) staining kit (Collaborative Research Inc., Bedford, Mass, USA).
20 μg of fibronectin is smeared on the lower layer of a Transwell cell culture chamber, and 5 μg of Matrigel is smeared on the upper layer. Colon cancer 26-L5 cells in an exponential growth phase are suspended in an RPMI1640 culture medium containing 1% of fetal calf serum (FCS), which contains different concentrations of the trehalose derivatives or different concentrations of Brartemicin. […] The filter ester membranes contain the colored colon cancer 26-L5 cells after invasion. The ester membranes are placed on glass slides and are subjected to permeabilization by xylene, neutral resin is used for sealing, and the invasion cells are counted under a 400× microscope. The number of the penetrating cells of each membrane is counted from five different visual fields, namely upper, lower, left, right and middle visual fields, the average value is calculated, and three filter membranes are arranged in parallel in each group.
The natural product Brartemicin is taken as the positive control, the inhibition action of the trehalose derivatives against the colon cancer 26-L5 cell invasion activity is determined, and the activity experiment results are as shown in the following Table 1.

The test system of a further data set is normal cells. The following applies: background statement; cited from earlier work.
Data set [2] concerns colon cancer 26-L5 cell invasion. The note with it: background statement; read-out: anti-colon cancer 26-L5 cell invasion activity IC50; cited from earlier work.

Read-outs that look alike come from different tables or passages of the source.

The IC50 is the concentration needed to halve the response being measured. Turning to `Cc1cc(O)cc(O)c1C(=O)OC[C@H]1O[C@H](O[C@H]2O[C@H](COC(=O)c3c(C)cc(O)cc3O)[C@@H](O)[C@H](O)[C@H]2O)[C@H](O)[C@@H](O)[C@@H]1O` [Brartemicin], the IC50 in data set [1] (incubation 6-8 hours, read-out: IC50) is 0.25 µg/mL; in data set [2], 390 nM. Besides, in the data set with normal cells, the “toxicity against normal cells” value was “no toxicity against normal cells”. Consider `COc1ccccc1C(=O)OCC1OC(OC2OC(COC(=O)c3ccccc3OC)C(O)C(O)C2O)C(O)C(O)C1O` [Compound 3a, 6,6′-bis(2-methoxybenzoyl)-α,α-D-trehalose], for which the “anti-colon cancer 26-L5 cell invasion activity (in words)” value in data set [1] is reported as “strong anti-colon cancer 26-L5 cell invasion activity”.

For `Cc1ccccc1C(=O)OC[C@H]1O[C@H](O[C@H]2O[C@H](COC(=O)c3ccccc3C)[C@@H](O)[C@H](O)[C@H]2O)[C@H](O)[C@@H](O)[C@@H]1O` [Compound 3b, 6,6″-bis(2-methylbenzoyl)-α,α-D-trehalose], the “IC50 (μg/mL)” value in data set [1] (incubation 6-8 hours) is reported as “NA (NA: no activity when IC50 is 10 μg/mL)”. Regarding `COc1ccc(C(=O)OC[C@H]2O[C@H](O[C@H]3O[C@H](COC(=O)c4ccc(OC)cc4)[C@@H](O)[C@H](O)[C@H]3O)[C@H](O)[C@@H](O)[C@@H]2O)cc1` [Compound 3c, 6,6′-bis(4-methoxybenzoyl)-α,α-D-trehalose], the “IC50 (μg/mL)” value in data set [1] (incubation 6-8 hours) is given as “NA (NA: no activity when IC50 is 10 μg/mL)”. With `O=C(OCC1OC(OC2OC(COC(=O)c3ccc(O)cc3)C(O)C(O)C2O)C(O)C(O)C1O)c1ccc(O)cc1` (stereo not drawn) [Compound 3d], in data set [1], the “anti-colon cancer 26-L5 cell invasion activity (in words)” value is reported as “strong anti-colon cancer 26-L5 cell invasion activity”.

Regarding `COc1cccc(C(=O)OC[C@H]2O[C@H](O[C@H]3O[C@H](COC(=O)c4cccc(OC)c4OC)[C@@H](O)[C@H](O)[C@H]3O)[C@H](O)[C@@H](O)[C@@H]2O)c1OC` [Compound 3e], in data set [1], the “activity compared with the natural product Brartemicin” value is “stronger activity than the natural product Brartemicin” and the “anti-colon cancer 26-L5 cell invasion activity (in words)” value was “strong anti-colon cancer 26-L5 cell invasion activity”. Besides, in data set [1] (incubation 6-8 hours), the “IC50” value was determined as 0.10 µg/mL. Besides, in data set [1] (same value given in μM, read-out: IC50), the IC50 came out at 0.15 µM. In the case of `O=C(OCC1OC(OC2OC(COC(=O)c3c(F)cccc3F)C(O)C(O)C2O)C(O)C(O)C1O)c1c(F)cccc1F` (stereo not drawn) [Compound 3f], in data set [1], the “anti-colon cancer 26-L5 cell invasion activity (in words)” value is recorded as “strong anti-colon cancer 26-L5 cell invasion activity”. In the case of `Cc1cccc(N)c1C(=O)OC[C@H]1O[C@H](O[C@H]2O[C@H](COC(=O)c3c(C)cccc3N)[C@@H](O)[C@H](O)[C@H]2O)[C@H](O)[C@@H](O)[C@@H]1O` [Compound 3g], in data set [1], the “anti-colon cancer 26-L5 cell invasion activity (in words)” value is on record as “strong anti-colon cancer 26-L5 cell invasion activity”. For `COc1cc(C(=O)OCC2OC(OC3OC(COC(=O)c4ccc(F)c(OC)c4)C(O)C(O)C3O)C(O)C(O)C2O)ccc1F` (stereo not drawn) [Compound 3h], the “IC50 (μg/mL)” value in data set [1] (incubation 6-8 hours) is recorded as “NA (NA: no activity when IC50 is 10 μg/mL)”. `COc1cc(C(=O)OC[C@H]2O[C@H](O[C@H]3O[C@H](COC(=O)c4cc(OC)c(OC)c(OC)c4)[C@@H](O)[C@H](O)[C@H]3O)[C@H](O)[C@@H](O)[C@@H]2O)cc(OC)c1OC` [Compound 3i]: the “IC50 (μg/mL)” value in data set [1] (incubation 6-8 hours) is reported as “NA (NA: no activity when IC50 is 10 μg/mL)”.

(Values after patent US8889651B2, “Trehalose derivatives, preparation method and uses thereof” (Joyochem Co., Ltd., priority 2010, dated 2014).)
